Data from US6737383B1, “Herbicidal oxadiazolidines” (priority 1999, dated 2004).

Tests used:
[1] = system: bedstraw; experiment: Test B pre/postemergence bedstraw; assay type: in vivo, Galium aparine
Procedure, shortened: (§1)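 Response is a visual 0-to-10 score relative to untreated plants, where 0 means no effect and 10 means complete control, taken twelve to sixteen days after application. Treatments went onto soil at planting and onto foliage of 1- to 4-leaf plants, using a surfactant-containing non-phytotoxic solvent.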

[2] = system: wild oat; experiment: Test B pre/postemergence wild oat; assay type: in vivo, Avena fatua
Procedure, shortened: as §1

[3] = system: bamyardgrass; experiment: Test B flood test barnyardgrass; assay type: in vivo, Echinochloa crus-galli; details: for Plant response rating, Barnyardgrass (0 to 10 scale, 0 is no effect, 10 is complete control): Rate 62 g/ha; for Plant response rating, Barnyardgrass (0 to 10 scale, 0 is no effect, 10 is complete control) / Barnyardgrass plant response rating (0 to 10 scale, 0 is no effect, 10 is complete control): visual evaluation after twelve to sixteen days; for Barnyardgrass plant response rating (0 to 10 scale, 0 is no effect, 10 is complete control): under heading Pre-emergence
Procedure, shortened: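 Plants were grown to the 2-leaf stage before treatment with test chemical, then held in a greenhouse for twelve to sixteen days. Injury was visually rated against untreated controls on a 0–10 scale, where 0 is no effect and 10 is complete control.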

[4] = system: soybean; experiment: Test B pre/postemergence soybean; assay type: in vivo, Glycine max
Procedure, shortened: as §1

[5] = Postemergence, Rate 250 g/ha, scale 0 to 10, 0 no effect, 10 complete control
[6] = Postemergence, Rate 1000 g/ha, scale 0 to 10 (0 no effect, 10 complete control)
[7] = Preemergence, Rate 125 g/ha, scale 0 to 10 (0 no effect, 10 complete control)
[8] = Preemergence, Rate 250 g/ha, scale of 0 to 10 where 0 is no effect and 10 is complete control
[9] = Preemergence, Rate 500 g/ha, scale 0 (no effect) to 10 (complete control)
[10] = Rate 125 g/ha, Postemergence, scale 0 to 10, 0 no effect, 10 complete control
[11] = Rate 500 g/ha, Postemergence, 0 to 10 scale (0 no effect, 10 complete control)
[12] = Rate 1000 g/ha, Preemergence, scale 0 to 10 (0 no effect, 10 complete control)
[13] = Rate 125 g/ha, Postemergence section (flood test species), scale 0 to 10, 0 no effect, 10 complete control
[14] = Rate 500 g/ha, Postemergence section of Table B, 0 to 10 scale (0 no effect, 10 complete control)
[15] = flood test, listed under Postemergence, Rate 250 g/ha, scale 0 to 10, 0 no effect, 10 complete control
[16] = Postemergence, Rate 250 g/ha, scale 0 to 10
[17] = Postemergence, Rate 500 g/ha, scale of 0 to 10 where 0 is no effect and 10 is complete control
[18] = Preemergence, Rate 62 g/ha, scale of 0 to 10 where 0 is no effect and 10 is complete control
[19] = Preemergence, Rate 125 g/ha, scale of 0 to 10 where 0 is no effect and 10 is complete control
[20] = Preemergence, Rate 250 g/ha, scale 0 to 10, 0 is no effect, 10 is complete control
[21] = Preemergence, Rate 500 g/ha, scale 0 to 10, 0 is no effect, 10 is complete control
[22] = Rate 62 g/ha, Postemergence, scale 0 to 10 (0 no effect, 10 complete control)
[23] = Rate 125 g/ha, Postemergence, scale 0 to 10, 0 is no effect, 10 is complete control
[24] = flood test species, Pre-emergence
[25] = Rate 125 g/ha, flood test species
[26] = Rate 250 g/ha, Pre-emergence (flood test species), scale 0 to 10, 0 is no effect, 10 is complete control
[27] = Rate 500 g/ha, Pre-emergence, flood test species, scale 0 to 10 (0 no effect, 10 complete control)
[28] = Pre-emergence, Rate 1000 g/ha, scale 0 to 10 (0 no effect, 10 complete control)
[29] = Postemergence, Rate 62 g/ha, scale 0 to 10, 0 is no effect, 10 is complete control
[30] = Postemergence, Rate 125 g/ha, scale of 0 to 10 where 0 is no effect and 10 is complete control
[31] = Postemergence, Rate 250 g/ha, scale of 0 to 10, 0 is no effect, 10 is complete control
[32] = Preemergence, Rate 250 g/ha, scale 0 to 10 (0 no effect, 10 complete control)
[33] = Preemergence, Rate 500 g/ha, scale of 0 to 10 where 0 is no effect and 10 is complete control
[34] = Rate 500 g/ha, Pre-emergence section of Table B, 0 to 10 scale (0 no effect, 10 complete control)
[35] = Rate 500 g/ha, Postemergence, scale 0 to 10, 0 is no effect, 10 is complete control

CCN(CC)C(=O)n1oc(=O)n(-c2ccc(F)cc2)c1=O [Compound 3]
Bedstraw plant response rating [1, 5]: 0
Bedstraw plant response rating [1, 6]: 0
Plant response rating, Bedstraw [1, 7]: 0
Plant response rating, Bedstraw [1, 8]: 0
Bedstraw plant response rating [1, 9]: 0
Bedstraw plant response rating [1, 10]: 0
Bedstraw plant response rating [1, 11]: 0
Plant response rating, Bedstraw [1, 12]: 0
Wild oats plant response rating [2, 5]: 0
Wild oats plant response rating [2, 6]: 0
Plant response rating, Wild oats [2, 7]: 0
Plant response rating, Wild oats [2, 8]: 0
Wild oats plant response rating [2, 9]: 0
Wild oats plant response rating [2, 10]: 0
Plant response rating, Wild oats [2, 12]: 0
Barnyardgrass plant response rating [3, 6]: 0
Barnyardgrass plant response rating [3, 13]: 0
Barnyardgrass plant response rating [3, 14]: 0
Barnyardgrass plant response rating [3, 15]: 0
Soybean plant response rating [4, 5]: 1
Soybean plant response rating [4, 6]: 2
Plant response rating, Soybean [4, 7]: 0
Plant response rating, Soybean [4, 8]: 0
Soybean plant response rating [4, 9]: 0
Soybean plant response rating [4, 10]: 0
Plant response rating, Soybean [4, 12]: 0

COc1ccc(-n2c(=O)on(C(=O)N(c3ccc(F)cc3)C(C)C)c2=O)cc1 [Compound 5]
Bedstraw plant response rating [1, 5]: 4
Bedstraw plant response rating [1, 6]: 4
Plant response rating, Bedstraw [1, 7]: 0
Plant response rating, Bedstraw [1, 8]: 0
Bedstraw plant response rating [1, 9]: 0
Bedstraw plant response rating [1, 10]: 3
Bedstraw plant response rating [1, 11]: 4
Plant response rating, Bedstraw [1, 12]: 0
Wild oats plant response rating [2, 5]: 1
Wild oats plant response rating [2, 6]: 1
Plant response rating, Wild oats [2, 7]: 0
Plant response rating, Wild oats [2, 8]: 6
Wild oats plant response rating [2, 9]: 6
Wild oats plant response rating [2, 10]: 0
Plant response rating, Wild oats [2, 12]: 6
Barnyardgrass plant response rating [3, 6]: 4
Barnyardgrass plant response rating [3, 13]: 0
Barnyardgrass plant response rating [3, 14]: 2
Barnyardgrass plant response rating [3, 15]: 0
Soybean plant response rating [4, 5]: 5
Soybean plant response rating [4, 6]: 6
Plant response rating, Soybean [4, 7]: 0
Plant response rating, Soybean [4, 8]: 0
Soybean plant response rating [4, 9]: 0
Soybean plant response rating [4, 10]: 5
Plant response rating, Soybean [4, 12]: 0

CC(C)N(C(=O)n1oc(=O)n(CCC#N)c1=O)c1ccc(Cl)cc1 [Compound 444]
Wild oats plant response rating [2, 16]: 0
Wild oats plant response rating [2, 17]: 2
Plant response rating, Wild oats [2, 18]: 0
Plant response rating, Wild oats [2, 19]: 0
Wild oats plant response rating [2, 20]: 0
Wild oats plant response rating [2, 21]: 4
Wild oats plant response rating [2, 22]: 0
Wild oats plant response rating [2, 23]: 0
Plant response rating, Barnyardgrass (0 to 10 scale, 0 is no effect, 10 is complete control) [3, 24]: 0
Barnyardgrass plant response rating (0 to 10 scale, 0 is no effect, 10 is complete control) [3, 25]: 0
Barnyardgrass plant response rating [3, 26]: 0
Barnyardgrass plant response rating [3, 27]: 0
Soybean plant response rating [4, 16]: 2
Soybean plant response rating [4, 17]: 2
Plant response rating, Soybean [4, 18]: 0
Plant response rating, Soybean [4, 19]: 0
Soybean plant response rating [4, 20]: 2
Soybean plant response rating [4, 21]: 3
Soybean plant response rating [4, 22]: 1
Soybean plant response rating [4, 23]: 1

CCOP(=O)(Cn1c(=O)on(C(=O)N(c2ccccc2)C(C)C)c1=O)OCC [Compound 447]
Wild oats plant response rating [2, 16]: 0
Wild oats plant response rating [2, 17]: 0
Wild oats plant response rating [2, 6]: 0
Plant response rating, Wild oats [2, 19]: 0
Wild oats plant response rating [2, 20]: 2
Wild oats plant response rating [2, 21]: 7
Wild oats plant response rating [2, 23]: 0
Plant response rating, Wild oats [2, 12]: 10
Barnyardgrass plant response rating [3, 28]: 0
Barnyardgrass plant response rating (0 to 10 scale, 0 is no effect, 10 is complete control) [3, 25]: 0
Barnyardgrass plant response rating [3, 26]: 0
Barnyardgrass plant response rating [3, 27]: 0
Soybean plant response rating [4, 16]: 2
Soybean plant response rating [4, 17]: 4
Soybean plant response rating [4, 6]: 6
Plant response rating, Soybean [4, 19]: 0
Soybean plant response rating [4, 20]: 0
Soybean plant response rating [4, 21]: 0
Soybean plant response rating [4, 23]: 1

COC(OC)C(C)n1c(=O)on(C(=O)N(c2ccc(F)cc2)C(C)C)c1=O (stereo not drawn) [Compound 471]
Wild oats plant response rating [2, 16]: 0
Plant response rating, Wild oats [2, 18]: 2
Plant response rating, Wild oats [2, 19]: 4
Wild oats plant response rating [2, 20]: 7
Wild oats plant response rating [2, 21]: 7
Wild oats plant response rating [2, 22]: 0
Wild oats plant response rating [2, 23]: 0
Plant response rating, Barnyardgrass (0 to 10 scale, 0 is no effect, 10 is complete control) [3, 24]: 0
Barnyardgrass plant response rating (0 to 10 scale, 0 is no effect, 10 is complete control) [3, 25]: 0
Barnyardgrass plant response rating [3, 26]: 0
Barnyardgrass plant response rating [3, 27]: 0
Soybean plant response rating [4, 16]: 3
Plant response rating, Soybean [4, 18]: 0
Plant response rating, Soybean [4, 19]: 0
Soybean plant response rating [4, 20]: 0
Soybean plant response rating [4, 21]: 0
Soybean plant response rating [4, 22]: 2
Soybean plant response rating [4, 23]: 2

CC(C)N(C(=O)n1oc(=O)n(CCC(=O)N(C)C)c1=O)c1ccc(F)cc1 [Compound 638]
Plant response rating, Wild oats [2, 29]: 1
Plant response rating, Wild oats [2, 30]: 1
Wild oats plant response rating [2, 31]: 1
Wild oats plant response rating [2, 18]: 4
Wild oats plant response rating [2, 19]: 4
Plant response rating, Wild oats [2, 32]: 10
Plant response rating, Wild oats [2, 33]: 10
Plant response rating, Barnyardgrass (0 to 10 scale, 0 is no effect, 10 is complete control) [3, 24]: 0
Barnyardgrass plant response rating (0 to 10 scale, 0 is no effect, 10 is complete control) [3, 25]: 0
Barnyardgrass plant response rating [3, 26]: 0
Barnyardgrass plant response rating [3, 34]: 0
Plant response rating, Soybean [4, 29]: 1
Plant response rating, Soybean [4, 30]: 1
Soybean plant response rating [4, 31]: 3
Soybean plant response rating [4, 18]: 0
Soybean plant response rating [4, 19]: 0
Plant response rating, Soybean [4, 32]: 3
Plant response rating, Soybean [4, 33]: 3

CC(C)N(C(=O)n1oc(=O)n(CC(=O)C2CCC2)c1=O)c1ccc(F)cc1F [Compound 642]
Plant response rating, Wild oats [2, 29]: 1
Wild oats plant response rating [2, 30]: 1
Wild oats plant response rating [2, 31]: 1
Wild oats plant response rating [2, 18]: 0
Wild oats plant response rating [2, 19]: 0
Plant response rating, Wild oats [2, 32]: 2
Plant response rating, Wild oats [2, 33]: 4
Plant response rating, Barnyardgrass (0 to 10 scale, 0 is no effect, 10 is complete control) [3, 24]: 0
Barnyardgrass plant response rating (0 to 10 scale, 0 is no effect, 10 is complete control) [3, 25]: 0
Barnyardgrass plant response rating [3, 26]: 0
Barnyardgrass plant response rating [3, 34]: 0
Plant response rating, Soybean [4, 29]: 2
Soybean plant response rating [4, 30]: 2
Soybean plant response rating [4, 31]: 2
Soybean plant response rating [4, 18]: 0
Soybean plant response rating [4, 19]: 0
Plant response rating, Soybean [4, 32]: 0
Plant response rating, Soybean [4, 33]: 0

COP(=O)(CCn1c(=O)on(C(=O)N(c2ccc(F)cc2)C(C)C)c1=O)OC [Compound 662]
Wild oats plant response rating [2, 30]: 1
Wild oats plant response rating [2, 6]: 1
Wild oats plant response rating [2, 19]: 0
Plant response rating, Wild oats [2, 32]: 0
Plant response rating, Wild oats [2, 33]: 9
Wild oats plant response rating [2, 35]: 1
Plant response rating, Wild oats [2, 12]: 9
Barnyardgrass plant response rating [3, 28]: 0
Barnyardgrass plant response rating (0 to 10 scale, 0 is no effect, 10 is complete control) [3, 25]: 0
Barnyardgrass plant response rating [3, 26]: 0
Barnyardgrass plant response rating [3, 34]: 0
Soybean plant response rating [4, 30]: 1
Soybean plant response rating [4, 19]: 0
Plant response rating, Soybean [4, 32]: 0
Plant response rating, Soybean [4, 33]: 0
Soybean plant response rating [4, 35]: 2
Plant response rating, Soybean [4, 12]: 3
